Key:
[1] = test system: Primary cultures of microglia; test: Aβ uptake and motility of microglia treated with IFN-γ (live confocal imaging); assay type: cell-based, mouse
Procedure: The meningoencephailis we observed was completely dependent on expression of IFN-g in the CNS. […] We therefore established an in vitro system to examine early events associated with microglia activation by IFN-γ and their contribution to uptake of Aβ and specific T-cell activation. Primary cultures of microglia were prepared and live images were obtained by a confocal microscope, as described in Methods. FITC-labeled Aβ was added to the culture for 30 min, cultures were carefully washed, and live images were taken for 30 minutes. […] (FIG. 10B).
Preparation of cultures of mouse brain microglia: Glial cultures were prepared as described (JI). […]
Aβ uptake and T-cell stimulation by microglia: PE-labeled microglial cells were cultured in MatTek culture dishes (Ashland, Mass.) for 24 hours in the DMEM-FCS medium. […] Live images were then taken for 30 min with 20 sec intervals by a Zeiss Laser Scanning Confocal Microscope and analyzed by 3D analysis software (Zeiss, Thornwood, N.Y.). […]

[2] = test system: microglia and resting Aβ-reactive T cells; test: Co-culture of microglia and resting Aβ-reactive T cells; assay type: cell-based, mouse
Procedure: Microglial cells were sorted and cultured for 12 hours in the presence and absence of IFN-γ. […] Representative areas were then extracted (shown in higher power) and analyzed for the pattern of T-cell migration. In the IFN-γ-treated culture, T cells were attracted to microglial cells, indicated by the sharp turns between the cells (FIG. 11B), and made a significant higher average number of contacts with the microglial cells, as compared with the untreated microglial culture (about 2.1 versus about 0.5, P<0.001) (FIG. 11B). […] These contacts are short time synapse formations characteristics of an early event during T-cell stimulation.
Preparation of cultures of mouse brain microglia: Glial cultures were prepared as described (JI). Briefly, cells were dissociated from the cerebral cortex of 1-day-old C57BL/6 mice after careful removal of meninges tissues, and were cultured in poly-D-lysine (PDL)-coated tissue culture flasks in medium supplemented with Dulbecco's modified Eagle's medium (DMEM), 4 mM L-glutamine, 50 U/ml penicillin, […] streptomycin, 10 mM HEPES, 1 mM sodium pyruvate, 10 mM nonessential amino acids, […] 2-mercaptoethanol (Sigma, St Louis, Mo.), and 10% fetal calf serum (FCS). On day 7, cultures were incubated with 100 pg/ml IFN-γ for 72 hours and on day 10, the entire glial culture was trypsinized and microglia were labeled with PE-conjugated anti-CD11b and sorted using FACS Vantage SE Cell Sorter.
Aβ uptake and T-cell stimulation by microglia: PE-labeled microglial cells were cultured in MatTek culture dishes (Ashland, Mass.) for 24 hours in the DMEM-FCS medium. […] Live images were then taken for 30 min with 20 sec intervals by a Zeiss Laser Scanning Confocal Microscope and analyzed by 3D analysis software (Zeiss, Thornwood, N.Y.). For the microglia-T-cell coculture experiments, Aβ-reactive T cells were generated as described and labeled with Alexa Flour 488-conjugated anti-mouse CD4. Resting cells were added to the microglia culture together with Aβ1-42.

[3] = test system: Aβ1-42-reactive T-cell lines; test: Epitope mapping / proliferation of Aβ1-42-reactive T-cell lines; assay type: cell-based, human
Procedure: Epitope specificity of these 3 T-cell lines using 5 overlapping peptides within Aβ15-42 was further investigated.
(§1) T-cell lines were then supplemented with 10 μg/ml IL-2 after 48 hours and every 2 days thereafter until they were completely resting. T-cell proliferation was measured 72 hours after stimulation following a 12 hr incubation with [^3H]-thymidine. Supernatants were collected 48 hr after T-cell stimulation, and antigen-induced cytokine production was measured by sandwich ELISA. Recommended pairs of antibodies (coating and detecting) for IL-10 (R&D, Minneapolis, Minn.), INF-γ. Endogen, Woburn, Mass.), IL-13 (PharMingen, (San Diego, Calif.), and TGF-β (Promega, Madison, Wis.) were used according to the manufacturer's instructions. Surface and intracellular staining was performed on Aβ-reactive T-cells after stimulation. All antibodies were purchased from BD Biosciences (San Diego, Calif.) and staining was performed according to the manufacturer's instructions.

Aβ-reactive T-cell lines = test: Cytokine secretion of Aβ-reactive T-cell lines (sandwich ELISA); assay type: cell-based, human
Procedure: as §1

Aβ-reactive T cells = test: FACS of activation marker and cytokine expression in an Aβ-reactive T-cell line; assay type: cell-based, human; conditions: 30 hr after stimulation with irradiated autologous PBMCs
Procedure: To further determine the phenotype of Aβ-reactive T cells, a representative T-cell line also was tested by FACS for Th1 and Th2 cytokine expression. […] We further asked whether the cytokine profiles represented primarily Th2 lineages by testing for the expression of INF-γ and IL-13/IL-5 in the same cells.
as §1

[4] = Fibril formation by quasielastic light-scattering spectroscopy (QLS); assay type: physicochemical; conditions: phosphate buffer pH 7.4, 3 samples of 10 μg/ml, 5 consecutive days
Procedure: Fibril formation was measured in 3 equivalent samples of 10 μg/ml Aβ for 5 consecutive days. […] Nested Aβ peptides (Aβ1-15, Aβ4-18, Aβ7-21, Aβ10-24, Aβ13-27, Aβ16-30, Aβ19-33, Aβ22-36, Aβ25-39, Aβ28-42) and alanine/glycine-substituted peptides were synthesized at Biosource International (Hopkinton, Mass.). Aβ peptides used for T-cell assays were dissolved in DMSO (2 mg/ml). Glatiramer acetate (GA) was obtained at the Brigham and Women's Hospital pharmacy.

[5] = test system: peripheral blood mononuclear cells; test: Primary stimulation of PBMCs with αCD3/CD28 or glatiramer acetate ([3H]thymidine proliferation); assay type: cell-based, human
Procedure: In this study, αCD3/CD28 stimulation was measured as follows. PBMCs were cultured with 1 μg/ml soluble αCD3 plus αCD28 or cell culture medium alone, pulsed with [^3H] thymidine on day 2 after stimulation and incorporation measured 12 hr later. For glatiramer acetate stimulation, cells were cultured with 50 μg/ml GA or cell culture medium alone, and pulsed with [^3H] thymidine on day 6. Mean cpm=average cpm for each group. The average cpm for cells with culture medium alone was 825. […] Proliferative responses were calculated from these subjects. Two-tailed p values were calculated for the mean cpm using the alternate Welch test, assuming Gaussion populations with unequal SD's.
Primary stimulation with αCD3/CD28 or GA: For […] stimulation frozen PBMCs (2×10^5 cells/well) were cultured in 5 wells (U-bottom 96-well plate) in the presence of 1 μg/ml soluble αCD3 plus αCD28 and in additional 5 wells with cell culture medium alone, pulsed with […] thymidine on day 2 after stimulation and incorporation measured 12 hr later. For glatiramer acetate stimulation, fresh PBMCs were cultured in 5 wells with 50 μg/ml GA or cell culture medium alone, pulsed with [^3H] thymidine on day 6, and incorporation measured 12 hr later.

[6] = lines from 24 subjects, fine mapping with 15 amino acid overlapping peptides
[7] = αCD3/CD28 1 μg/ml pulsed day 2, GA 50 μg/ml pulsed day 6

Substance: IFN-γ: cytokine used to treat microglial cultures (100 pg/ml)
- Aβ uptake by microglia ([1]; pretreated versus untreated cultures, FITC-labeled Aβ 30 min): significantly enhanced
- filipodia formation (microglia motility) ([1]; treated versus untreated cultures): longer and occurred with higher frequency
- average number of contacts of T cells with the microglial cells ([2]; IFN-γ-treated culture): about 2.1
- motility of the T cells ([2]; IFN-γ-treated versus untreated culture): significant increase
- density of T cells on microglia ([2]; IFN-γ-treated versus untreated microglia, Aβ1-42 as antigen): higher density

Substance: Aβ15-42: overlapping C-terminal fragment of Aβ1-42, residues 15-42 (QKLVFFAEDVGSNKGAIIGLMVGGVVIA; Amyloid-beta protein 42; UniProt P05067 686-713, looked up, fragment)
- Distribution of Aβ T-cell epitopes: Number of T-cell lines [3, 6]: 22
- Distribution of Aβ T-cell epitopes: percent [3, 6]: 92%
- Th2 response (Aβ-reactive T-cell lines): elicit a Th2 response
- expression of the CD69 activation marker on CD4+ cells (Aβ-reactive T cells): increased expression

Substance: Aβ1-40: Aβ1-40 synthetic peptide, one of the two major forms of Aβ protein [reference compound]
- reactivity of Aβ28-42-reactive T-cell lines [3]: unreactive
- fibril formation / aggregation [4]: Slight aggregation was detected in only one sample

Substance: Glatiramer acetate
- subjects that showed proliferation ([5]; all groups tested, 50 μg/ml GA): 90%
- Proliferation, Mean cpm ± SEM, Adult [5, 7]: 35,342 ± 7,893 cpm
- Proliferation, Mean cpm ± SEM, Alzheimer's disease subjects [5, 7]: 19,403 ± 3,078 cpm
- Proliferation, Mean cpm ± SEM, Elderly [5, 7]: 27,311 ± 4,781 cpm

— patent publication US20050123553A1, “Amyloid beta-peptide and methods of use” (priority 2003, published 2005)
